In PubChem BioAssay (NCI) one finds TGI data, which are given here for 8 compounds.

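Step 1: Grow cells in 96-well plates. Step 2: Expose to compound for 48 hours at 5 concentrations. Step 3: Interpolate endpoints linearly; if unreached, use highest concentration. TGI: total growth inhibition.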

Among the test systems are HCC-2998 colon; MDA-MB-435; SNB-75 CNS; HCT-15 colon; OVCAR-4 ovarian; TK-10 renal; IGROV1 ovarian; UACC-62 melanoma; NCI-H226 lung; NCI-H460 lung; SNB-19 CNS; RXF 393 renal; NCI-H23 lung; UACC-257 melanoma; SK-MEL-28 melanoma; EKVX NSCLC; CCRF-CEM leukemia; HL-60(TB) leukemia; LOX IMVI melanoma.
Assay in all cases: NCI-60 cell line screen, 48 h

With `O=[N+]([O-])c1ccc(N/N=C2/CC3=C2CCCCCCCCCC3)c([N+](=O)[O-])c1`, the TGI in the experiment with HCC-2998 colon, in the experiment on MDA-MB-435, with SNB-75 CNS, in the experiment with HCT-15 colon, in the experiment on OVCAR-4 ovarian and in the experiment on TK-10 renal was over 100 µM in each case. Further, the TGI with IGROV1 ovarian, with UACC-62 melanoma, in the experiment with NCI-H226 lung, in the experiment on NCI-H460 lung, in the experiment on SNB-19 CNS and in the experiment on RXF 393 renal was over 100 µM each time. Further, the TGI with NCI-H23 lung, in the experiment on UACC-257 melanoma, in the experiment on SK-MEL-28 melanoma, in the experiment on EKVX NSCLC and in the experiment on CCRF-CEM leukemia was over 100 µM each time.
With `CSc1ccc2c(cc1=O)[C@@H](NC(=O)c1ccc(Cl)cc1)CCc1cc(O)c(O)c(O)c1-2`, the TGI in the experiment with HCC-2998 colon is over 100 µM; in the experiment on SNB-75 CNS it was over 100 µM; with HCT-15 colon it was 51.7 µM; in the experiment on OVCAR-4 ovarian it was 82 µM; in the experiment on HL-60(TB) leukemia it was over 100 µM; in the experiment on TK-10 renal, over 100 µM. Further, the TGI with IGROV1 ovarian was 50.8 µM; with UACC-62 melanoma, 68.1 µM; with NCI-H226 lung, over 100 µM; in the experiment with NCI-H460 lung it was over 100 µM; in the experiment with SNB-19 CNS it was over 100 µM; in the experiment on LOX IMVI melanoma it was 33.6 µM. The TGI in the experiment on RXF 393 renal, in the experiment on NCI-H23 lung, with UACC-257 melanoma, with SK-MEL-28 melanoma, in the experiment on EKVX NSCLC and in the experiment with CCRF-CEM leukemia was over 100 µM in each case.
As for `CC(O)CN1c2ccccc2Sc2ccccc21` (configuration not stated), the TGI with HCC-2998 colon, with MDA-MB-435, with HCT-15 colon, in the experiment with OVCAR-4 ovarian, in the experiment on TK-10 renal and in the experiment on IGROV1 ovarian was over 100 µM in each case. Further, the TGI in the experiment with UACC-62 melanoma, with NCI-H226 lung, in the experiment with NCI-H460 lung, with SNB-19 CNS, in the experiment with LOX IMVI melanoma and with RXF 393 renal was over 100 µM in each case. The TGI in the experiment with NCI-H23 lung, in the experiment on UACC-257 melanoma, with SK-MEL-28 melanoma, in the experiment with EKVX NSCLC and in the experiment on CCRF-CEM leukemia was over 100 µM in each case.
Consider `O=c1oc2ccccc2c(O)c1C(c1cnc2ccccc2c1)c1c(O)c2ccccc2oc1=O`, for which the TGI was over 100 µM in the experiment with MDA-MB-435; 52.7 µM with SNB-75 CNS; over 100 µM with HCT-15 colon; over 100 µM in the experiment on OVCAR-4 ovarian; 90 µM in the experiment on HL-60(TB) leukemia; over 100 µM in the experiment with TK-10 renal. In addition, the TGI is over 100 µM in the experiment with IGROV1 ovarian; 35.4 µM with UACC-62 melanoma; over 100 µM in the experiment with NCI-H226 lung; over 100 µM with NCI-H460 lung; over 100 µM in the experiment with SNB-19 CNS; over 100 µM in the experiment with LOX IMVI melanoma. Further, the TGI in the experiment with NCI-H23 lung, in the experiment with UACC-257 melanoma, in the experiment with SK-MEL-28 melanoma, in the experiment on EKVX NSCLC and in the experiment with CCRF-CEM leukemia was over 100 µM each time.
On to `CC[C@]12C=CCN3CCC4(c5cc([C@@]6(C(=O)OC)CC7CN(CCc8c6[nH]c6ccccc86)C[C@@H]6CCCC[C@H]76)c(OC)cc5N(C)C4[C@](O)(C(=O)OC)C1OC(C)=O)[C@@H]32` (some centres not stated), for which the TGI in the experiment with HCC-2998 colon was under 0.01 µM; in the experiment with HCT-15 colon, 12.5 µM; with OVCAR-4 ovarian, 19.3 µM; with TK-10 renal, 21.8 µM; in the experiment with UACC-62 melanoma, 17.8 µM; with NCI-H226 lung, 15.3 µM. Further, the TGI was 0.0425 µM in the experiment on NCI-H460 lung; 18.1 µM with SNB-19 CNS; 12.4 µM in the experiment on LOX IMVI melanoma; under 0.01 µM with NCI-H23 lung; 17.1 µM with SK-MEL-28 melanoma; 22.8 µM in the experiment with EKVX NSCLC. The compound further came in with a TGI with CCRF-CEM leukemia of over 37.1 µM.
For the compound `O=C1Cc2nc(CO)c(CO)c(CO)c2CO1`, the TGI in the experiment with HCC-2998 colon, in the experiment on SNB-75 CNS, with HCT-15 colon, in the experiment on HL-60(TB) leukemia, with TK-10 renal and in the experiment with IGROV1 ovarian was over 100 µM each time. The TGI in the experiment on UACC-62 melanoma, with NCI-H460 lung, in the experiment on SNB-19 CNS, in the experiment on LOX IMVI melanoma, in the experiment with NCI-H23 lung and with UACC-257 melanoma was over 100 µM each time. The TGI in the experiment on SK-MEL-28 melanoma, in the experiment on EKVX NSCLC and in the experiment with CCRF-CEM leukemia was over 100 µM each time.
`CCOc1cn(C2OC(CO)C(O)C2O)c(=O)[nH]c1=O` (configuration not stated): the TGI in the experiment on HCC-2998 colon, in the experiment with SNB-75 CNS, with HCT-15 colon, with HL-60(TB) leukemia, in the experiment with TK-10 renal and with IGROV1 ovarian was over 100 µM in each case. The TGI in the experiment on UACC-62 melanoma, in the experiment on NCI-H226 lung, in the experiment on NCI-H460 lung, in the experiment with SNB-19 CNS, with LOX IMVI melanoma and in the experiment with RXF 393 renal was over 100 µM in each case. For the same compound, the TGI in the experiment with NCI-H23 lung, with UACC-257 melanoma, with SK-MEL-28 melanoma, with EKVX NSCLC and in the experiment on CCRF-CEM leukemia was over 100 µM throughout.
For the compound `CC(=O)Nc1ccc(-c2nnc(SCC(=O)Nc3cccc(Cl)c3)o2)cc1`, the TGI is 37.6 µM with HCC-2998 colon; 71.9 µM with SNB-75 CNS; over 100 µM in the experiment with HCT-15 colon; 42.3 µM in the experiment with OVCAR-4 ovarian; 60.4 µM with HL-60(TB) leukemia; 33.9 µM with TK-10 renal. In addition, the TGI in the experiment with IGROV1 ovarian is 32.5 µM; in the experiment with UACC-62 melanoma it was 33.9 µM; with NCI-H226 lung, 48.8 µM; in the experiment with NCI-H460 lung, 51.2 µM; in the experiment on SNB-19 CNS, 39.4 µM; in the experiment on LOX IMVI melanoma, 26.8 µM. Besides, the TGI in the experiment on RXF 393 renal was 31.4 µM; with NCI-H23 lung it was 23 µM; with UACC-257 melanoma, 43.6 µM; in the experiment with SK-MEL-28 melanoma it was 33.8 µM; with EKVX NSCLC, 45 µM; in the experiment on CCRF-CEM leukemia it was over 100 µM.
